This note sets out measurements from patent US20220226299A1 (NIPPON CHEMIPHAR CO., LTD., priority 2019, published 2022).

What is called IC50 is the concentration that inhibits the measured activity by half.

The structures appear in SMILES notation.

T2 sequence (O43497 whole entry): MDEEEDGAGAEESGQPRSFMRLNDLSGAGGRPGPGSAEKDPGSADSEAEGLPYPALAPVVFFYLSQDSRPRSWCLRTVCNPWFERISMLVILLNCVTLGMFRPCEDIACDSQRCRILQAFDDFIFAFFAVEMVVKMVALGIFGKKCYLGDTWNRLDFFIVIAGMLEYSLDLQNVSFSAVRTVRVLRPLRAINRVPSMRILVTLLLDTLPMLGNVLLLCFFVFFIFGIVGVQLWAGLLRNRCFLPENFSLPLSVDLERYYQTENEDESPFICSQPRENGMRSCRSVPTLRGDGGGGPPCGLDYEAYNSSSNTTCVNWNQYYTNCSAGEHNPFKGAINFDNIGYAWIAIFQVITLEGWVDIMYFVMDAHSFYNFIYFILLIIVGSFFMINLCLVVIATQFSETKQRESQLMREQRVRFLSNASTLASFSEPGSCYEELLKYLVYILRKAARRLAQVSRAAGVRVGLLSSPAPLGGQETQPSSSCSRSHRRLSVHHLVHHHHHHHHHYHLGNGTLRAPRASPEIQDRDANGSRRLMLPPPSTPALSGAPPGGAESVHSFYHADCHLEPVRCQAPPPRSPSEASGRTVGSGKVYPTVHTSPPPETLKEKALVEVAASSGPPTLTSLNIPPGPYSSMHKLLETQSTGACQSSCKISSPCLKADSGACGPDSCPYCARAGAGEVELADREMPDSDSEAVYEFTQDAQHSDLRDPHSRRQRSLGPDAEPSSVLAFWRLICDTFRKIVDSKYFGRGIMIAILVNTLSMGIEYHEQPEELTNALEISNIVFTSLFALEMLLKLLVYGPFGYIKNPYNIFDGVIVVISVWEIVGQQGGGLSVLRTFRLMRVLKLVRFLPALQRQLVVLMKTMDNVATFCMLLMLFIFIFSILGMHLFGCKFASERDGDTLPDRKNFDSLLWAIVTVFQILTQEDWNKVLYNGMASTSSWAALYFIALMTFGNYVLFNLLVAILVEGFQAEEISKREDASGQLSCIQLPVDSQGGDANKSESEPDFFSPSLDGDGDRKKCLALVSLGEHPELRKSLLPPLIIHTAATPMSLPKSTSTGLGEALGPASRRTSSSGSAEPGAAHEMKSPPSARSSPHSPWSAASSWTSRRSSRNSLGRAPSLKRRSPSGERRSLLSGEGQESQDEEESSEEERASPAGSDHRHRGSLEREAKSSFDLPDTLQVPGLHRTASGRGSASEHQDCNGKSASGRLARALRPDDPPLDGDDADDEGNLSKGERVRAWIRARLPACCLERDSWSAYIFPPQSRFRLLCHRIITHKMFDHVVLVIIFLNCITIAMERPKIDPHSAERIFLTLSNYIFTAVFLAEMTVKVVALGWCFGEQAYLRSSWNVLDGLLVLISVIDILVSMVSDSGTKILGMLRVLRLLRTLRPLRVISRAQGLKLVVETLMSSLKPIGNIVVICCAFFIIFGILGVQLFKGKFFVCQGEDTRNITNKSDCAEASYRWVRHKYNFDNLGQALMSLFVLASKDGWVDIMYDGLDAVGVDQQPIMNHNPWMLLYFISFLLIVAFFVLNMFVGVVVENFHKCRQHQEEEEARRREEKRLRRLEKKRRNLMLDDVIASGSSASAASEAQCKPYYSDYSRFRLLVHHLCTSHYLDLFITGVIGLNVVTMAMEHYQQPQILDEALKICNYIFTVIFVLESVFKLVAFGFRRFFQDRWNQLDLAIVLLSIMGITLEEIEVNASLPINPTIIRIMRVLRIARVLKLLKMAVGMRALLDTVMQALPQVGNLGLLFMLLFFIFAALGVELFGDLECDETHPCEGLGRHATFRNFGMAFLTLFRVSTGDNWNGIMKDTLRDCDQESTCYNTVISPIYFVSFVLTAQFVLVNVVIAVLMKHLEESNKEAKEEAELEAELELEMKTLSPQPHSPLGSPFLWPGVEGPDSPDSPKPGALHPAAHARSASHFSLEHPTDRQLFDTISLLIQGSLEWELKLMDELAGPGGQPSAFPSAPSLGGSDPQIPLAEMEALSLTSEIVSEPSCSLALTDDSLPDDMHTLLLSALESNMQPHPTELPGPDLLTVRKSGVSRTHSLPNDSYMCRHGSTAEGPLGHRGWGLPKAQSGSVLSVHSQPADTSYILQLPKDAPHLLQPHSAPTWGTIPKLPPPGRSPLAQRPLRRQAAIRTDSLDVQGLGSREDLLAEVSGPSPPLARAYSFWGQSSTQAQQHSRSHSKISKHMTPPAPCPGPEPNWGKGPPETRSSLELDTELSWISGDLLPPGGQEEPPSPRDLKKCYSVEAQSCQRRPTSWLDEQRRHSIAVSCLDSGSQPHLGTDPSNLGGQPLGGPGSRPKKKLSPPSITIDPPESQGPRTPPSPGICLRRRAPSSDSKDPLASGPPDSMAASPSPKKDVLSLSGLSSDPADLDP

For one assay, the target named is T1, human Cav3.2 channels (Homo sapiens, UniProt O95180).
T1 construct: human Cav3.2 channel ORF (Open Reading Frame) gene; expressed in transfected cells; host or cells: HEK293 cells (ATCC No. CRL-1573), pcDNA3.1(+) plasmid
T1 sequence (O95180 whole entry): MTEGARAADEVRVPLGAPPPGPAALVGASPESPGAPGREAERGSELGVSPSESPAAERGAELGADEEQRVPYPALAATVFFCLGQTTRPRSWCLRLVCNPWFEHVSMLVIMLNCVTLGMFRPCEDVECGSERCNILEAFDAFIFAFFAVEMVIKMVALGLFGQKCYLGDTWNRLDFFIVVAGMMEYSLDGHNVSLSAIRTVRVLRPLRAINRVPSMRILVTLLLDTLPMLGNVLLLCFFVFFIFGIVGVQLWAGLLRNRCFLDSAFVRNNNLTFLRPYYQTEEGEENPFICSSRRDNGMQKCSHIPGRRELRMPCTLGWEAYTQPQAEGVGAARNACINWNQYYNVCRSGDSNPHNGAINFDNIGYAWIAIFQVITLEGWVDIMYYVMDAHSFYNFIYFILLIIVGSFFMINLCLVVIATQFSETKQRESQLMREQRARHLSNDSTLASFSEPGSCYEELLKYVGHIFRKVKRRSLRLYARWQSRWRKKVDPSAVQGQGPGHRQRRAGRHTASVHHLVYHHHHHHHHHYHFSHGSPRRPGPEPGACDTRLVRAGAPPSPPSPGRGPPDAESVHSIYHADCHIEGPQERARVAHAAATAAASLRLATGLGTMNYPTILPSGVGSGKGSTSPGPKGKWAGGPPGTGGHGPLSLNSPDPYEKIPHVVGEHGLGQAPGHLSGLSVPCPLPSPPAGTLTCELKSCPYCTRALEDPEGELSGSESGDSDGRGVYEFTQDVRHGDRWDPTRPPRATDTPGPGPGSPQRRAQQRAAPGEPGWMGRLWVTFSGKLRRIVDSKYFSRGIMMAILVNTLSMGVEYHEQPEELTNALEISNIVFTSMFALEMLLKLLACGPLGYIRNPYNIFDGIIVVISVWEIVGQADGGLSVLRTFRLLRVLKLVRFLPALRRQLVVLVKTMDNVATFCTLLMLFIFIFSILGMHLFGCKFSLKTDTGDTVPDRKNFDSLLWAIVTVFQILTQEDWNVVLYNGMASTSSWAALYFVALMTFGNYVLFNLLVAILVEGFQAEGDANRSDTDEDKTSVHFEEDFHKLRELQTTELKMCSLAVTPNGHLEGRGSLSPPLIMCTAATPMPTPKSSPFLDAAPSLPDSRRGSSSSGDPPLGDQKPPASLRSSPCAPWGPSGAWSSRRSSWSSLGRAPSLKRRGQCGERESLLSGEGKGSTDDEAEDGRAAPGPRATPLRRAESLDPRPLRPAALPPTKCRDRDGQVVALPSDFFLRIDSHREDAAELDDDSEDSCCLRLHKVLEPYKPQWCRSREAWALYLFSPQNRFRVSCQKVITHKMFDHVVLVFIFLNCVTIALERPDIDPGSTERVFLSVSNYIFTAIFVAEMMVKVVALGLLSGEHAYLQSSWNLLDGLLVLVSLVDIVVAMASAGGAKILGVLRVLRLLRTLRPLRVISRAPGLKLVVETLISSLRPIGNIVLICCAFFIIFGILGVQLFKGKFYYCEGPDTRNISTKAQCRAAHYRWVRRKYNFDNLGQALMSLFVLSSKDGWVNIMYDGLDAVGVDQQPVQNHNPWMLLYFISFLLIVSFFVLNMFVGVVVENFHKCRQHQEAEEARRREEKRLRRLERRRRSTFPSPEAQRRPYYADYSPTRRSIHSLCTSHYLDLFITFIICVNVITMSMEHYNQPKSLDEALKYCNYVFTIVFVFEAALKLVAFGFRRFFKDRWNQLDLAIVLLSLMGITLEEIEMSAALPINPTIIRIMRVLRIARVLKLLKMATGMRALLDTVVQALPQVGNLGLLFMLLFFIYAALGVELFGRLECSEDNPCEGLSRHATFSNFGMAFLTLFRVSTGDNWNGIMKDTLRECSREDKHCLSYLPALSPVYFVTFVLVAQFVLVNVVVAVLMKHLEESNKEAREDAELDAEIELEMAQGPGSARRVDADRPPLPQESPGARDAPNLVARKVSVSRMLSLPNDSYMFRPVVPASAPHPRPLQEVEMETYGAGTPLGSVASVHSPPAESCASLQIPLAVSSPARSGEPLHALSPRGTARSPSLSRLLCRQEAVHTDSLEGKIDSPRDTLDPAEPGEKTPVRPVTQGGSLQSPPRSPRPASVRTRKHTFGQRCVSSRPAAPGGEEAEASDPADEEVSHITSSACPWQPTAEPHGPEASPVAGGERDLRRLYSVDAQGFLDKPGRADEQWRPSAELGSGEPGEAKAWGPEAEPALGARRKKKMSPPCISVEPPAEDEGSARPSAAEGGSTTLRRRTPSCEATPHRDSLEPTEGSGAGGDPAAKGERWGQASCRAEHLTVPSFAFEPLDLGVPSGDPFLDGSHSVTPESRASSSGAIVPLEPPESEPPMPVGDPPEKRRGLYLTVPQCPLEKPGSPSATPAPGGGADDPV
The assay can be described thus: T-type calcium blocking action: intracellular calcium (Fluo-4 AM fluorescence) in HEK293 cells steadily expressing human Cav3.2 channels. The class given is cell-based. As to conditions: HEK293 cells expressing human Cav3.2; KCl-stimulated calcium influx, Fluo-4 fluorescence; Tables 1 to 3. A digest of the protocol:
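Fluo-4 AM-loaded stable HEK293 cells were preincubated 15 min at RT with compound (0.1% DMSO final) in choline-based buffer (pH 7.3). Gramicidin was added, then KCl-induced calcium influx was read at 485/510 nm for 10 s. Percent block came from peak rise over baseline, and IC50 from log-concentration plots.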
Background: Calcium flux is commonly read through the fluorescence of an indicator in the cells.
With `Cn1ncc2cc(CC(=O)N[C@@H]3CCN(c4ccc(C(F)(F)F)nc4)C3)ccc21` [Example 144, (R)-2-(1-methyl-1H-indazol-5-yl)-N-(1-(6-(trifluoromethyl)pyridin-3-yl)pyrrolidin-3-yl)acetamide], the IC50 was 0.022 µM. On the same count and under the same terms, under `O=C(Cc1ccc2ncsc2c1)N[C@@H]1CCN(c2cncc(C(F)(F)F)c2)C1` [Example 157, (R)-2-(benzo[d]thiazol-6-yl)-N-(1-(5-(trifluoromethyl)pyridin-3-yl)pyrrolidin-3-yl)acetamide] stands 0.28 µM.

Turning to `O=C(Cc1ccc2ncsc2c1)N[C@@H]1CCN(c2ccc(C(F)(F)F)nc2)C1` [Example 158, (R)-2-(benzo[d]thiazol-6-yl)-N-(1-(6-(trifluoromethyl)pyridin-3-yl)pyrrolidin-3-yl)acetamide], the IC50 came to 1.1 µM. Turning to `O=C(Cc1ccc2[nH]ncc2c1)N[C@@H]1CCN(c2cncc(C(F)(F)F)c2)C1` [Example 159, (R)-2-(1H-indazol-5-yl)-N-(1-(5-(trifluoromethyl)pyridin-3-yl)pyrrolidin-3-yl)acetamide], the IC50 came out at 0.51 µM.

On to `O=C(Cc1ccc2[nH]ncc2c1)N[C@@H]1CCN(c2ccc(C(F)(F)F)nc2)C1` [Example 160, (R)-2-(1H-indazol-5-yl)-N-(1-(6-(trifluoromethyl)pyridin-3-yl)pyrrolidin-3-yl)acetamide], for which the IC50 is 6.4 µM. Same read-out and setting: under `O=C(Cc1ccc(C2CC2)cc1)NC1(C(F)(F)F)CCN(c2cncc(C(F)(F)F)c2)C1` (centres unmarked) [Example 161, 2-(4-cyclopropylphenyl)-N-(3-(trifluoromethyl)-1-(5-(trifluoromethyl)pyridin-3-yl)pyrrolidin-3-yl)acetamide] stands 0.26 µM; under `O=C(Cc1ccc(C(F)(F)F)cc1)NC1(C(F)(F)F)CCN(c2cncc(C(F)(F)F)c2)C1` (centres unmarked) [Example 162, N-(3-(trifluoromethyl)-1-(5-(trifluoromethyl)pyridin-3-yl)pyrrolidin-3-yl)-2-(4-(trifluoromethyl)phenyl)acetamide], 0.56 µM; under `O=C(Cc1ccc2[nH]nnc2c1)N[C@@H]1CCN(c2cncc(C(F)(F)F)c2)C1` [Example 163, (R)-2-(1H-benzo[d][1,2,3]triazol-5-yl)-N-(1-(5-(trifluoromethyl)pyridin-3-yl)pyrrolidin-3-yl)acetamide], 1.4 µM. On the same count and under the same terms, under `O=C(Cc1ccc2[nH]nnc2c1)N[C@@H]1CCN(c2ccc(C(F)(F)F)nc2)C1` [Example 164, (R)-2-(1H-benzo[d][1,2,3]triazol-5-yl)-N-(1-(6-(trifluoromethyl)pyridin-3-yl)pyrrolidin-3-yl)acetamide] stands 2.9 µM; under `Cn1nnc2cc(CC(=O)N[C@@H]3CCN(c4cncc(C(F)(F)F)c4)C3)ccc21` [Example 167, (R)-2-(1-methyl-1H-benzo[d][1,2,3]triazol-5-yl)-N-(1-(5-(trifluoromethyl)pyridin-3-yl)pyrrolidin-3-yl)acetamide], 0.16 µM. Still for that read-out and setting: under `Cn1nnc2cc(CC(=O)N[C@@H]3CCN(c4ccc(C(F)(F)F)nc4)C3)ccc21` [Example 168, (R)-2-(1-methyl-1H-benzo[d][1,2,3]triazol-5-yl)-N-(1-(6-(trifluoromethyl)pyridin-3-yl)pyrrolidin-3-yl)acetamide] stands 0.17 µM. On to `O=C(Cc1ccc(C2CC2)cc1)NC1CN(c2ccc(F)c(C(F)(F)F)c2)C1` [Example 170, 2-(4-cyclopropylphenyl)-N-(1-(4-fluoro-3-(trifluoromethyl)phenyl)azetidin-3-yl)acetamide], for which the IC50 came to 0.88 µM. On to `O=C(Cc1ccc(Br)cc1)N[C@@H]1CCN(c2cncc(C(F)(F)F)c2)C1` [Example 171, (R)-2-(4-bromophenyl)-N-(1-(5-(trifluoromethyl)pyridin-3-yl)pyrrolidin-3-yl)acetamide], for which the IC50 is 0.11 µM. Same read-out and setting: under `O=C(Cc1ccc(C2CC2)cc1)N[C@@H]1CCN(c2nc3ccc(F)cc3s2)C1` [Example 172, (R)-2-(4-cyclopropylphenyl)-N-(1-(6-fluorobenzo[d]thiazol-2-yl)pyrrolidin-3-yl)acetamide] stands 0.55 µM.

Consider `O=C(Cc1ccc(C2CC2)cc1)N[C@@H]1CCN(c2ncc(Br)s2)C1` [Example 173, (R)—N-(1-(5-bromothiazol-2-yl)pyrrolidin-3-yl)-2-(4-cyclopropylphenyl)acetamide], for which the IC50 was 1.1 µM. Consider `O=C(Cc1ccc(C2CC2)cc1)N[C@@H]1CCN(c2ccc(F)c(C(F)(F)F)c2)C1` [Example 174, (R)-2-(4-cyclopropylphenyl)-N-(1-(4-fluoro-3-(trifluoromethyl)phenyl)pyrrolidin-3-yl)acetamide], for which the IC50 was found to be 0.2 µM. For the compound `COc1cccc(N2CC[C@@H](NC(=O)Cc3ccc(C4CC4)cc3)C2)c1` [Example 175, (R)-2-(4-cyclopropylphenyl)-N-(1-(3-methoxyphenyl)pyrrolidin-3-yl)acetamide], the IC50 came to 0.49 µM. Still for that read-out and setting: under `O=C(Cc1ccc(N2CCC(F)(F)C2)cc1)N[C@@H]1CCN(c2cncc(C(F)(F)F)c2)C1` [Example 176, (R)-2-(4-(3,3-difluoropyrrolidin-1-yl)phenyl)-N-(1-(5-(trifluoromethyl)pyridin-3-yl)pyrrolidin-3-yl)acetamide] stands 0.0073 µM; under `CCOC(=O)C(C)(C)Oc1cccc(N2CC[C@@H](NC(=O)Cc3ccc(C4CC4)cc3)C2)c1` [Example 177, Ethyl (R)-2-(3-(3-(2-(4-cyclopropylphenyl)acetamido)pyrrolidin-1-yl)phenoxy)-2-methylpropanoate], 0.3 µM. On the same count and under the same terms, then `O=C(Cc1ccc(C2CC2)cc1)N[C@@H]1CCN(c2cccc(O)c2)C1` [Example 178, (R)-2-(4-cyclopropylphenyl)-N-(1-(3-hydroxyphenyl)pyrrolidin-3-yl)acetamide], with 0.59 µM. On the same count and under the same terms, then `O=C(Cc1ccc(C2CC2)cc1)N[C@@H]1CCN(c2cccc(C(F)(F)F)n2)C1` [Example 179, (R)-2-(4-cyclopropylphenyl)-N-(1-(6-(trifluoromethyl)pyridin-2-yl)pyrrolidin-3-yl)acetamide], with 0.24 µM. With `COc1cc(OC)nc(N2CC[C@@H](NC(=O)Cc3ccc(C4CC4)cc3)C2)n1` [Example 180, (R)-2-(4-cyclopropylphenyl)-N-(1-(4,6-dimethoxypyrimidin-2-yl)pyrrolidin-3-yl)acetamide], the IC50 is 2.1 µM. On to `O=C(Cc1ccc(N2CCOCC2)cc1)N[C@@H]1CCN(c2cncc(C(F)(F)F)c2)C1` [Example 181, (R)-2-(4-morpholinophenyl)-N-(1-(5-(trifluoromethyl)pyridin-3-yl)pyrrolidin-3-yl)acetamide], for which the IC50 came to 0.025 µM. Still for that read-out and setting: then `O=C(Cc1ccc(C2CC2)cc1)N[C@@H]1CCN(c2cc(C(F)(F)F)ccn2)C1` [Example 182, (R)-2-(4-cyclopropylphenyl)-N-(1-(4-(trifluoromethyl)pyridin-2-yl)pyrrolidin-3-yl)acetamide], with 0.72 µM.

Consider `O=C(Cc1ccc(C(F)(F)F)cc1)N[C@@H]1CCN(c2ccc(C(F)(F)F)nc2)C1` [Example 183, (R)-2-(4-(trifluoromethyl)phenyl)-N-(1-(6-(trifluoromethyl)pyridin-3-yl)pyrrolidin-3-yl)acetamide], for which the IC50 is 0.2 µM. Same read-out and setting: under `O=C(Cc1ccc(C(F)(F)F)cc1)N[C@@H]1CCN(c2ccc(F)c(C(F)(F)F)c2)C1` [Example 184, (R)—N-(1-(4-fluoro-3-(trifluoromethyl)phenyl)pyrrolidin-3-yl)-2-(4-(trifluoromethyl)phenyl)acetamide] stands 3 µM; under `CC(C(=O)N[C@@H]1CCN(c2ccc(C(F)(F)F)nc2)C1)c1ccc(C(F)(F)F)cc1` (stereo partly drawn) [Example 185, 2-(4-(Trifluoromethyl)phenyl)-N—((R)-1-(6-(trifluoromethyl)pyridin-3-yl)pyrrolidin-3-yl)propanamide], 1.4 µM; under `O=C(Cc1ccc2cc[nH]c2c1)N[C@@H]1CCN(c2nc(C(F)(F)F)cs2)C1` [Example 187, (R)-2-(1H-indol-6-yl)-N-(1-(4-(trifluoromethyl)thiazol-2-yl)pyrrolidin-3-yl)acetamide], 0.51 µM.

A further assay addresses T2, Cav3.1 channel (Homo sapiens, UniProt O43497).
T2 construct: replaced with a Cav3.1 channel ORF gene; expressed in transfected cells
The assay can be described thus: Cav3.1 channel blocking action, as the Cav3.2 test but with the Cav3.1 channel ORF gene and 1.0 mM CaCl2 in the buffers. It is filed as cell-based. Particulars: Cav3.1 channel ORF gene; CaCl2 1.0 mM in buffer A and buffer B.
The compound `Cn1ncc2cc(CC(=O)N[C@@H]3CCN(c4ccc(C(F)(F)F)nc4)C3)ccc21` [Example 144, (R)-2-(1-methyl-1H-indazol-5-yl)-N-(1-(6-(trifluoromethyl)pyridin-3-yl)pyrrolidin-3-yl)acetamide] showed an IC50 of 0.47 µM.
